Reference: the NIST ThermoML archive (doi:10.1016/j.jct.2018.05.019)

Conditions: 101.33 kPa, Liquid, transient hot wire

CCO [ethanol]
Conditions | thermal conductivity [W/m/K]
276.51 K | 0.1719
280.8 K | 0.1687
284.27 K | 0.1699
290.37 K | 0.1677
293.43 K | 0.1658

CCCC(=O)OC [methyl butanoate]
Conditions | thermal conductivity [W/m/K]
283.34 K | 0.1459
288.3 K | 0.1442
293.39 K | 0.1416
297.41 K | 0.1401
298.44 K | 0.1397
301.3 K | 0.1391
305.42 K | 0.1372
309.31 K | 0.136
313.29 K | 0.1353
318.38 K | 0.1333
323.35 K | 0.1314
328.55 K | 0.1295
333.25 K | 0.128
338.4 K | 0.1261
343.25 K | 0.1249
348.24 K | 0.1233
353.35 K | 0.1215
358.18 K | 0.1207

CCCCCC(=O)OC [methyl hexanoate]
Conditions | thermal conductivity [W/m/K]
263.83 K | 0.1482
268.65 K | 0.1472
273.7 K | 0.1448
278.59 K | 0.1439
283.75 K | 0.142
288.67 K | 0.1405
293.64 K | 0.1395
298.72 K | 0.1376
303.63 K | 0.1367
308.61 K | 0.1344
313.6 K | 0.1336
321.08 K | 0.1315
328.54 K | 0.1301
333.52 K | 0.1284
338.55 K | 0.1269
343.49 K | 0.1259
348.48 K | 0.1243
353.7 K | 0.1231
358.38 K | 0.1219
363.41 K | 0.1205
368.5 K | 0.1191

CCCCCCCCC(=O)OC [methyl nonanoate]
Conditions | thermal conductivity [W/m/K]
278.44 K | 0.1448
283.5 K | 0.1441
288.5 K | 0.1428
293.36 K | 0.1418
298.3 K | 0.141
303.31 K | 0.1393
308.24 K | 0.1387
313.3 K | 0.1371
318.29 K | 0.1365
323.25 K | 0.1347
328.25 K | 0.1337
333.06 K | 0.1327
338.16 K | 0.1313
343.23 K | 0.1299
348.07 K | 0.1289
353.12 K | 0.1277
358.24 K | 0.1263
363.07 K | 0.1256
368.1 K | 0.1242
373.11 K | 0.1227
378.24 K | 0.1213
383.21 K | 0.1207

CCCCCCCC(=O)OC [methyl octanoate]
Conditions | thermal conductivity [W/m/K]
273.56 K | 0.145
278.48 K | 0.1446
283.44 K | 0.1428
288.35 K | 0.1423
293.42 K | 0.1405
298.33 K | 0.1395
303.21 K | 0.1387
308.29 K | 0.1374
313.29 K | 0.1361
318.22 K | 0.1348
323.2 K | 0.1335
328.3 K | 0.132
333.41 K | 0.1304
338.32 K | 0.1294
343.27 K | 0.1285
348.12 K | 0.1275
353.23 K | 0.126
358.28 K | 0.1246
363.09 K | 0.1238
368.27 K | 0.1223
373.24 K | 0.1212
378.21 K | 0.1196
383.17 K | 0.1189
388.44 K | 0.1173
393.54 K | 0.116

CCCCC(=O)OC [methyl pentanoate]
Conditions | thermal conductivity [W/m/K]
285.55 K | 0.143
290.39 K | 0.1405
295.51 K | 0.1385
298.99 K | 0.1373
305.5 K | 0.1356
312.35 K | 0.1336
320.42 K | 0.1313
327.35 K | 0.1295
333.5 K | 0.1272
340.41 K | 0.1246
348.36 K | 0.1229
355.39 K | 0.1212
362.16 K | 0.1194

O [water]
Conditions | thermal conductivity [W/m/K]
293.09 K | 0.6056
299.55 K | 0.613
309.83 K | 0.6313
314.96 K | 0.6399
319.56 K | 0.6399
324.64 K | 0.6492
332.53 K | 0.6555
339.33 K | 0.657
340.41 K | 0.6654
349.41 K | 0.6723
